Source: the supplement of paper PMC11997997

Columns and labels:
[1] = system: murine bone marrow-derived macrophages; assay: area under cytotoxicity dose-response curve (AUC (% cytotoxicity x dose, relative)); higher = more cytotoxic; conditions: duration: 6 days; dose range: 0.13-80 uM, 8 points
Procedure, shortened: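 Cytotoxicity is expressed as the area under the dose–response curve from GraphPad Prism version 10. To obtain it, primary murine bone marrow-derived macrophages were incubated for 6 days at 37 °C in 5% CO2 across final concentrations of 80–0.13 μM. Viability came from CellTiter-Glo luminescence, and percent cytotoxicity was normalised to vehicle and positive control wells.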

[2] = system: Mycobacterium tuberculosis CDC1551 (intracellular, in murine BMDM); assay: area under intracellular growth-inhibition dose-response curve (AUC (% inhibition x dose, relative)); higher = more potent; conditions: duration: 6 days; dose range: 0.13-80 uM, 8 points
Procedure, shortened: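 In 384-well opaque plates, primary murine bone marrow-derived macrophages were infected with luciferase-expressing M. tuberculosis CDC1551 (multiplicity of infection 1, 1 h) 24 h after seeding, then treated for 6 days across final concentrations of 80–0.13 μM. Growth was measured by Bright-Glo luciferin assay, normalised to a reference drug control and the lowest-concentration wells. The reported value is the area under the growth-inhibition dose–response curve from GraphPad Prism.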

Compound	area under cytotoxicity dose-response curve [1]	area under intracellular growth-inhibition dose-response curve [2]
CCc1ccc(C(=O)NCc2cccs2)s1	17.6	220
Cn1c(/C=C/c2ccc([N+](=O)[O-])o2)nc2ccccc2c1=O	53.2	85.8
Nc1c2c(nc3ccn(Cc4ccccc4)c(=O)c13)CCC2	39.1	196
Cc1ccnc2c1ccc1c(C)ccnc12.O	38.9	199
Cc1ccccc1-n1c(C)cc(/C=N/NC(=O)c2ccncc2)c1C	< 0	214
Sc1[nH]cnc2ncnc1-2	< 0	88.6
CCC(=O)NC(=S)Nc1ccc(NC(=S)NC(=O)c2ccccc2)cc1	48.6	263
CCOc1ccc(-c2cnc(NCc3cccc4ccccc34)n2CCOC)cc1.O=C(O)C(=O)O	23.1	66.2
CC(C)Oc1ccc(C(=O)NC(=S)Nc2ccc(CN3CCOCC3)cc2)cc1	2.7	136
COc1ccc(NC(=O)Cn2c(C)cc(=O)c3ccccc32)cc1	< 0	182
CCOC(=O)c1cc(-c2csc(-c3ccc(C(C)(C)C)cc3)n2)on1	79.1	231
O=C(N/N=C/c1ccccn1)c1ccncc1	1.91	262
Cc1cc(Cl)ccc1OCCCC(=O)NNC(=O)c1ccncc1	< 0	271
Cc1ccc(C2(C)NC(=O)N(CC(=O)N3c4ccccc4NC(=O)CC3C)C2=O)cc1 (stereo unspecified)	3.65	36.2
CCC(=O)N1CCN(c2ccc(NC(=O)c3ccc([N+](=O)[O-])o3)cc2Cl)CC1	30.3	58.5
Cc1cc(NS(=O)(=O)c2ccc(N)cc2)no1	28.4	57.8
CNc1nc(N2CCc3ccccc32)ncc1F	< 0	140
COc1sc(SC)cc1/C=N/NC(=O)c1ccncc1	26.8	176
COc1ccc(CCNC2=C(Cl)C(=O)N(CCc3ccc(OC)c(OC)c3)C2=O)cc1OC	92.7	66.8
CC(C)(C)C1C/C(=C/c2ccccn2)C(=O)/C(=C/c2ccccn2)C1 (stereo unspecified)	155	65.4
CCN1CCN(c2cc3c(cc2F)c(=O)c(C(=O)O)cn3C2CC2)CC1	7.13	258

Compound	area under cytotoxicity dose-response curve [1]	area under intracellular growth-inhibition dose-response curve [2]
CCCCCc1ccc(OCCC[n+]2ccccc2)c(CCCCC)c1.[Cl-]	53	137
CCOC(=O)c1cc(-c2ccc(N3CCOCC3)cc2)nn1-c1ccc(F)cc1F	22.7	15.8
CC1CCN(C(=O)C2CCN(c3nnc(-n4cccc4)s3)CC2)CC1	< 0	234
CCCCN1CNC(=S)N(c2ccc(C(=O)OCC)cc2)C1	< 0	270
O=C(c1cccs1)N1CCC(c2ccccc2)C1 (stereo unspecified)	< 0	189
COc1cccc(OCC(=O)NC2CCCCCC2)c1	22.4	266
O=C(c1ccc([N+](=O)[O-])o1)N1CCN(c2nc3ccc(F)cc3s2)CC1	12.7	22.9
COc1ccc(S(=O)(=O)N2CCN(C(=O)C3CC(=O)N(c4ccccc4F)C3)CC2)cc1OC (stereo unspecified)	27.9	104
CC(C)(C)C(=O)/C=C/Nc1ccccc1O	5.21	88
O=C(N/N=C/c1coc2ccccc2c1=O)c1ccncc1	< 0	272
COc1ccc(-c2ncn(CCC#N)c2[N+](=O)[O-])cc1	8.24	119
Cc1occc1C(=O)N/N=C/C=C/c1ccccc1	60	87.6
CCCCC(=O)NCc1ccccc1Cl	22.2	262
CCCN(CCC)CC(O)Cn1cc(/C=C/C(=O)c2ccccc2)c2ccccc21 (stereo unspecified)	9.39	226
Cc1cc(OCC(=O)NNC(=O)c2ccncc2)ccc1C(C)C	34.5	259
CS(=O)(=O)c1ccc([C@@H](O)[C@@H](CF)NC(=O)C(Cl)Cl)cc1	62.1	78.9
CC1CCN(C(=O)C2COc3ccccc3O2)CC1 (stereo unspecified)	< 0	265
CCCCCC(=O)NC(=S)Nc1ccc(NC(=O)c2ccco2)cc1	0.441	274
CCn1cc(C(=O)NCCc2ccccc2)c(=O)c2cc(S(=O)(=O)N3CCCC3)ccc21	74.8	203
CC(=O)c1cc(NC(=O)c2ccccc2)c(=O)oc1/C=C/N(C)C	30.2	160
Cc1nc2ccccn2c1C(=O)NCc1ccc2c(c1)OCO2	38.9	203

Compound	area under cytotoxicity dose-response curve [1]	area under intracellular growth-inhibition dose-response curve [2]
COc1cc(OC)c(/C=N/NC(=O)c2ccncc2)c(OC)c1	60.6	272
COc1ccc(C2=NCCn3c2c2ccc(C(F)(F)F)cc2[n+]3[O-])cc1	108	95.2
Cc1nnc(SCC2=C(C(=O)O)N3C(=O)C(NC(=O)COc4ccccc4)C3SC2)s1 (stereo unspecified)	73.9	151
CC[C@H](CO)NCCN[C@H](CC)CO.Cl	52.1	68.5
O=C(NC1CCCCCC1)c1ccco1	47.2	214
CSc1nnc(-c2ccc(NC(N)=S)cc2)o1	96.1	154
NC(=S)N/N=C/c1ccc(-c2cc(Cl)ccc2Cl)o1	33.2	247
Cn1ccc(=Nc2ccc(NC(=O)c3ccc(/N=c4\ccn(C)c5ccc([N+](=O)[O-])cc45)cc3)cc2)cc1	108	260
CCOc1ccccc1NC(=O)c1ccc2[nH]c(C)c(C)c2c1	6.53	192
COc1ccc(C)cc1-n1nnnc1SC(C)C(=O)NC1CCCC1 (stereo unspecified)	< 0	44.8
CC(NC(=O)c1cccc(F)c1)C1CC2CCC1C2 (stereo unspecified)	< 0	273
O=C(COC(=O)CCCOc1ccc(Cl)cc1Cl)NCc1ccc(F)cc1	40.6	9.47
Cc1nnc(SCC2=C(C(=O)O)N3C(=O)C(NC(=O)Cn4nc(C(F)F)c(Cl)c4C)C3SC2)s1 (stereo unspecified)	< 0	193
O=[N+]([O-])c1nn(-c2ccc(Cl)cc2)[n+]([O-])c1NCc1ccncc1	11.5	30.7
CC(=O)Nc1ccc(S(=O)(=O)Nc2ccc(N3CCCCC3)cc2)cc1	16.6	27.8
CCCN1CNC(=S)N(c2ccc(C(=O)OCC)cc2)C1	9	83.8
COc1ccc(OCC(=O)NC(=S)Nc2ccc(N3CCOCC3)c(Cl)c2)cc1	123	173
COc1cccc2c1nc(C)c1cc(C)oc12	< 0	121
O=C(/C=C/c1ccc(S(=O)(=O)N2CCOCC2)cc1)NCCc1ccc(C(F)(F)F)cc1	42	102
CCN(CC)CCOC(=O)c1ccc(N/C=C(/C#N)c2nc(-c3ccc(OC)c(OC)c3)cs2)cc1	36.6	90.7
CC(=O)Nc1sc(N/N=C/c2ccc(O)cc2)nc1-c1ccc(C)cc1	84.1	181
